Common to all, as to experiment: NCI anticancer screen, dose series, 48 h
In experiment [1] the test system is ACHN.
The test system of experiment [2] is CCRF-CEM.
In experiment [3] the test system is COLO 205.
The test system of experiment [4] is HCC 2998.
The test system of experiment [5] is HT-29.
Experiment [6] relates to Hs-578T.
Experiment [7] relates to M14.
Experiment [8] relates to MCF7.
Experiment [9] deals with MDA-MB-435.
Experiment [10] relates to OVCAR-3.
The subject of experiment [11] is OVCAR-5.
Experiment [12] relates to SF-268.
For experiment [13], the system named is SF-539.
In experiment [14] the test system is SN12C.
The subject of experiment [15] is SNB-75.
The test system of experiment [16] is SW-620.
The subject of experiment [17] is TK-10.
Experiment [18] relates to U-251.
The test system of experiment [19] is UO-31.
The subject of experiment [20] is RXF 393.

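Following 48 hours of exposure in 96-well plates, responses at five concentrations were used to interpolate endpoints linearly. GI50 = concentration required for 50% inhibition of growth.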 Active and inactive are the calls of the source. Rule as the data show it: active = GI50 up to about 1.1 µM and inactive = higher.

Regarding `Cc1cccc(N(CCC#N)S(=O)(=O)c2ccccc2)c1`, the GI50 in [1], in experiment [2], in [3], in experiment [4], in [5] and in experiment [6] was > 100 µM (inactive) in each case. Also, the GI50 in experiment [7], in experiment [8], in [9], in experiment [10], in experiment [11] and in experiment [12] was > 100 µM (inactive) each time. Further, the GI50 in experiment [13], in experiment [14], in experiment [15], in experiment [16], in experiment [17] and in [18] was > 100 µM (inactive) each time. Also, the GI50 in experiment [19] was 97.7 µM (inactive).
In the case of `Cn1c(=N)n[n+]([O-])c2ccccc21`, the GI50 in experiment [1] was 5.48 µM (inactive); in experiment [2], 4.24 µM (inactive); in experiment [3], 2.33 µM (inactive); in [4], 20.6 µM (inactive); in experiment [5], 3.1 µM (inactive); in [7] it was 1.95 µM (inactive). Moreover, the GI50 in experiment [8] is 1.8 µM (inactive); in [9] it was 0.877 µM (active); in experiment [10], 1.55 µM (inactive); in [11], 2.51 µM (inactive); in [20], 19.6 µM (inactive); in [13], 1.5 µM (inactive). In addition, the GI50 is 2.13 µM (inactive) in [14]; 3.78 µM (inactive) in [15]; 2.74 µM (inactive) in experiment [16]; 27.2 µM (inactive) in experiment [17]; 7.69 µM (inactive) in [18]; 5.16 µM (inactive) in experiment [19].
With `COC(=O)C[C@H](COCc1ccccc1)NC(=O)C[C@H](COCc1ccccc1)NC(=O)C[C@H](COCc1ccccc1)NC(=O)OC(C)(C)C`, the GI50 is 80.9 µM (inactive) in experiment [1]; > 100 µM (inactive) in experiment [2]; > 100 µM (inactive) in experiment [3]; 72.8 µM (inactive) in experiment [5]; 34.6 µM (inactive) in experiment [6]; 54.6 µM (inactive) in experiment [7]. Also, the GI50 was 11.8 µM (inactive) in [8]; 32.8 µM (inactive) in experiment [9]; > 100 µM (inactive) in experiment [10]; > 100 µM (inactive) in experiment [11]; 20.9 µM (inactive) in experiment [20]; 41.5 µM (inactive) in [12]. For the same molecule, the GI50 in [13] is 95.3 µM (inactive); in [14], 41.4 µM (inactive); in [15], 13.1 µM (inactive); in experiment [16] it was > 100 µM (inactive); in experiment [18], 94 µM (inactive); in experiment [19] it was > 100 µM (inactive).
Consider `O=C(CNC(=O)OCc1ccccc1)NCCCCC(NC(=O)OCc1ccccc1)C(=O)NC(CCCCNC(=O)CNC(=O)OCc1ccccc1)C(=O)OCc1ccccc1` (stereo not drawn), for which the GI50 in experiment [1], in [2], in [4], in experiment [5], in [7] and in experiment [8] was > 62.5 µM (inactive) in each case. For the same molecule, the GI50 in experiment [9], in experiment [10], in [11], in experiment [12], in experiment [14] and in [15] was > 62.5 µM (inactive) in each case. In addition, the GI50 in experiment [16], in experiment [17], in experiment [18] and in experiment [19] was > 62.5 µM (inactive) each time.
`Cc1ccc(OCC2OC(n3cnc4c(N(C)C)nc(Br)nc43)CC2Oc2ccc(C)cc2)cc1` (stereo not drawn): the GI50 in [1], in [2], in experiment [3], in [4], in [5] and in [6] was > 100 µM (inactive) throughout. The GI50 in experiment [7], in [8], in [9], in experiment [10], in [11] and in experiment [12] was > 100 µM (inactive) throughout. Besides, the GI50 in experiment [13], in experiment [14], in experiment [16], in experiment [17], in [18] and in experiment [19] was > 100 µM (inactive) in each case.
Regarding `COc1ccc2c(c1)CCc1c(CO)c(COC(=O)NC(C)C)n(C)c1-2`, the GI50 in [1] was 3.83 µM (inactive); in experiment [2] it was 2.64 µM (inactive); in experiment [3] it was 2.09 µM (inactive); in experiment [4], 8.85 µM (inactive); in experiment [5] it was 3.14 µM (inactive); in [7] it was 6.11 µM (inactive). The GI50 in experiment [8] is 9.79 µM (inactive); in [10] it was 8.51 µM (inactive); in [11] it was 24.2 µM (inactive); in experiment [20], 7.55 µM (inactive); in experiment [12], 6.49 µM (inactive); in experiment [13], 12.9 µM (inactive). Further, the GI50 in experiment [14] was 8.93 µM (inactive); in [15] it was 4.82 µM (inactive); in experiment [16] it was 3.74 µM (inactive); in experiment [17], 14.6 µM (inactive); in experiment [18] it was 5.41 µM (inactive); in experiment [19], 4.97 µM (inactive).
As to `COC(=O)c1cc(/C=C/C(=O)Cc2ccccc2)cn1S(=O)(=O)c1ccccc1`, the GI50 in experiment [1], in [2], in experiment [3], in experiment [4], in experiment [5] and in [6] was > 100 µM (inactive) in each case. The GI50 in experiment [7], in [8], in experiment [10], in [11], in [20] and in [12] was > 100 µM (inactive) throughout. For the same molecule, the GI50 in [13], in experiment [14], in experiment [15], in [17] and in experiment [19] was > 100 µM (inactive) each time.
With `NC1c2c(Br)sc(N3CCCC3)c2C(=O)C1O` (stereo not drawn), the GI50 in [1] was > 50 µM (inactive); in experiment [2] it was > 50 µM (inactive); in [3] it was > 50 µM (inactive); in [4] it was 36.6 µM (inactive); in [5], > 50 µM (inactive); in experiment [6], > 50 µM (inactive). For the same molecule, the GI50 in experiment [7], in [8], in [9], in experiment [10], in [11] and in experiment [12] was > 50 µM (inactive) throughout. Also, the GI50 in experiment [13], in experiment [14], in experiment [15], in experiment [16], in experiment [17] and in experiment [18] was > 50 µM (inactive) throughout. Moreover, in [19], the GI50 was > 50 µM (inactive).
For `CC(=O)OC1CC[C@@]2(C)C(=CC[C@@H]3[C@@H]2CC[C@]2(C)C(OC(C)=O)[C@H](n4ccnc4)C[C@@H]32)C1` (stereo partly drawn), the GI50 in [1] was 40.3 µM (inactive); in [2], 11.7 µM (inactive); in experiment [3] it was 18.5 µM (inactive); in experiment [5], 10.7 µM (inactive); in experiment [6], 47 µM (inactive); in [7], 17.2 µM (inactive). For the same molecule, the GI50 was 16.4 µM (inactive) in experiment [8]; 16.9 µM (inactive) in [9]; 74.1 µM (inactive) in experiment [11]; 30.2 µM (inactive) in experiment [20]; 41.5 µM (inactive) in [12]; 15.3 µM (inactive) in experiment [13]. Further, the GI50 was 56 µM (inactive) in experiment [14]; 54.7 µM (inactive) in experiment [15]; 33.6 µM (inactive) in [16]; > 100 µM (inactive) in experiment [17]; 37.8 µM (inactive) in [18]; 36.6 µM (inactive) in experiment [19].
As to `CSc1nc(=O)n(CCC#N)nc1SC`, the GI50 in experiment [1] is 38.8 µM (inactive); in experiment [3], 19.5 µM (inactive); in experiment [4] it was 15 µM (inactive); in experiment [5], 51.6 µM (inactive); in experiment [6], 27.6 µM (inactive); in [7], 18.7 µM (inactive). Moreover, the GI50 is 2.72 µM (inactive) in experiment [8]; 23.1 µM (inactive) in [9]; 16.1 µM (inactive) in experiment [10]; 41.8 µM (inactive) in experiment [11]; 27.9 µM (inactive) in experiment [12]; > 100 µM (inactive) in experiment [13]. The GI50 was 47.9 µM (inactive) in experiment [14]; 51.5 µM (inactive) in experiment [15]; 21 µM (inactive) in experiment [16]; 40.2 µM (inactive) in [17]; > 100 µM (inactive) in [18]; 51.8 µM (inactive) in experiment [19].
In the case of `CCOC(=O)CCC(NC(=O)C(N)c1ccc([N+](=O)[O-])cc1)C(=O)NC(CCC(=O)OCC)C(=O)OCC` (stereo not drawn), the GI50 in experiment [1], in experiment [3], in [4], in experiment [5], in experiment [6] and in [7] was > 100 µM (inactive) in each case. The GI50 in [8], in experiment [11], in [14], in experiment [15], in [16] and in experiment [17] was > 100 µM (inactive) in each case. The GI50 in [18] and in experiment [19] was > 100 µM (inactive) throughout.
